The source of these data is patent publication US8148373B2, “Compounds” (AstraZeneca AB, priority 2008, dated 2012).

Each structure is given as a SMILES string.

Experiment [1] has as its target T1, Adrenergic β2 (H292 cells) (Homo sapiens, UniProt P07550).
T1 construct: endogenous in cells; host or cells: H292 cells
Put plainly: Adrenergic β2 Mediated cAMP Production, single concentration 1 μM. Particulars: percentage of the maximum response generated by 1E-07M formoterol; for activation at 1 µM: NCI-H292, 1 μM compound, read-out: β2 (% effect at 1 μM). The experiment is classed as cell-based. Put shortly: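 H292 cells were plated overnight, pre-treated with 300 μM rolipram for 10 min, then exposed to compound at 1 μM final (1% DMSO) for 60 min at room temperature. cAMP in the lysates was measured by AlphaScreen against a standard curve and expressed as % of the maximal response to 1E-07M formoterol.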

In experiment [2] the target is T2, human muscarinic acetylcholine M3 receptor (M3-ACh) (Homo sapiens, UniProt P20309).
T2 construct: expressed in transfected cells; host or cells: CHO-K1 (Chinese Hamster Ovary) cell membranes
Put plainly: Muscarinic 3 Receptor Binding Assay, % inhibition specific binding at 1 μM. Conditions: 1 μM compound, % inhibition specific [3H]-NMS binding. Put shortly: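 Competition binding of 0.1 nM [3H]NMS to membranes from CHO-K1 cells expressing human M3, SPA format, with compound at 1 μM in 20 mM HEPES pH 7.4, 5 mM MgCl2, 1% DMSO. Incubated 16 h at room temperature; non-specific binding defined by 1 μM atropine; value is % inhibition of specific binding.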

T2 sequence (P20309 whole entry): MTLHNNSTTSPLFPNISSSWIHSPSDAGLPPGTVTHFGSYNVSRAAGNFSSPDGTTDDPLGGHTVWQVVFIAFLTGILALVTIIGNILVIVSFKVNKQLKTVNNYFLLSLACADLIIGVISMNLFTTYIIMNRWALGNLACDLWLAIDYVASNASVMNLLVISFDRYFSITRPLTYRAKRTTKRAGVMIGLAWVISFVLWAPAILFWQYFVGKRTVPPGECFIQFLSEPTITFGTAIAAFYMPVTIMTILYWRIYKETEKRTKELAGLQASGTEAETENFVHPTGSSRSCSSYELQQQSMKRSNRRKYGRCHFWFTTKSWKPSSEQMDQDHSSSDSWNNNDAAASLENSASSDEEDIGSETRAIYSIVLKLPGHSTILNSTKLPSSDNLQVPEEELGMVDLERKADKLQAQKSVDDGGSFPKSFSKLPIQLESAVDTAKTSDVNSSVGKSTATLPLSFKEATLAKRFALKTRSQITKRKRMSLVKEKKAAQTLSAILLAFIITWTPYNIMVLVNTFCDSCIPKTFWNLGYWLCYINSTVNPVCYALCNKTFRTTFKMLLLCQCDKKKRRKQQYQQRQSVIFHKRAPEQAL
T1 sequence (P07550 whole entry): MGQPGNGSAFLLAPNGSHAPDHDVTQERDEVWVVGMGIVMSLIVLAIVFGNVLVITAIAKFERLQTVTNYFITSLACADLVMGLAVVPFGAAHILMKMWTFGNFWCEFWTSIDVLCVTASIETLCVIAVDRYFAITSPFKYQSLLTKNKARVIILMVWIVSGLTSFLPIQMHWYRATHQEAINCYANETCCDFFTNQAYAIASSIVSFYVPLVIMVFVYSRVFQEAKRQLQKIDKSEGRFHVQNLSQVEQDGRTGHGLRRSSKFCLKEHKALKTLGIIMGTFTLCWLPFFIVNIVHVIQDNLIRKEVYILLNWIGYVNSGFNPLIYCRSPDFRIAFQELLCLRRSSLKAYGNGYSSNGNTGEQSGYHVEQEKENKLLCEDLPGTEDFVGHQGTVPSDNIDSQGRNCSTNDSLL

Consider `O=C(CCc1nc2ccccc2[nH]1)N1CCOC2(CCN(Cc3cc(F)cc(CCNC[C@H](O)c4ccc(O)c5[nH]c(=O)sc45)c3)CC2)C1` [Example 116, (R)-7-(2-(3-((4-(3-(1H-benzo[d]imidazol-2-yl)propanoyl)-1-oxa-4,9-diazaspiro[5.5]undecan-9-yl)methyl)-5-fluorophenethylamino)-1-hydroxyethyl)-4-hydroxybenzo[d]thiazol-2(3H)-one], for which the activation at 1 µM in experiment [1] is 111%. In addition, testing at 1 µM in experiment [2] gave an inhibition of 3%.

On to `Cc1occc1C(=O)N1CCOC2(CCN(CCOc3ccc(CNC[C@H](O)c4ccc(O)c5[nH]c(=O)sc45)cc3)CC2)C1` [Example 238, (R)-4-hydroxy-7-(1-hydroxy-2-(4-(2-(4-(2-methylfuran-3-carbonyl)-1-oxa-4,9-diazaspiro[5.5]undecan-9-yl)ethoxy)benzylamino)ethyl) benzo[d]thiazol-2(3H)-one], for which, in experiment [1], the activation at 1 µM was 73%. In experiment [2], testing at 1 µM gave an inhibition of 57%.

`Cc1cccc(C(=O)N2CCOC3(CCN(CCCCCCCCCNC[C@H](O)c4ccc(O)c5[nH]c(=O)sc45)CC3)C2)n1` [Example 196, (R)-4-hydroxy-7-(1-hydroxy-2-(9-(4-(6-methylpicolinoyl)-1-oxa-4,9-diazaspiro[5.5]undecan-9-yl)nonylamino)ethyl)benzo[d]thiazol-2(3H)-one]: in experiment [1], the activation at 1 µM came to 89%. In addition, at 1 µM the inhibition in experiment [2] was 95%.

On to `O=C(CCCc1cccs1)N1CCOC2(CCN(CCOc3ccc(CNC[C@H](O)c4ccc(O)c5[nH]c(=O)sc45)cc3)CC2)C1` [Example 224, (R)-4-hydroxy-7-(1-hydroxy-2-(4-(2-(4-(4-(thiophen-2-yl)butanoyl)-1-oxa-4,9-diazaspiro[5.5]undecan-9-yl)ethoxy)benzylamino)ethyl) benzo[d]thiazol-2(3H)-one], for which, in experiment [1], the activation at 1 µM is 89%. Further, the inhibition (usually the drop in the measured response relative to a control, in per cent) at 1 µM in experiment [2] is 70%.

For the compound `O=C(c1ccc2occc2c1)N1CCOC2(CCN(CCOc3ccc(CNC[C@H](O)c4ccc(O)c5[nH]c(=O)sc45)cc3)CC2)C1` [Example 250, (R)-7-(2-(4-(2-(4-(benzofuran-5-carbonyl)-1-oxa-4,9-diazaspiro[5.5]undecan-9-yl)ethoxy)benzylamino)-1-hydroxyethyl)-4-hydroxybenzo[d]thiazol-2(3H)-one], the activation at 1 µM in experiment [1] amounted to 77%. Further, in experiment [2], the inhibition at 1 µM amounted to 91%.

Turning to `CC1=NNC(=O)C1CCC(=O)N1CCOC2(CCN(Cc3cc(F)cc(CCNC[C@H](O)c4ccc(O)c5[nH]c(=O)sc45)c3)CC2)C1` (stereo partly drawn) [Example 161, 7-((1R)-2-(3-fluoro-5-((4-(3-(3-methyl-5-oxo-4,5-dihydro-1H-pyrazol-4-yl)propanoyl)-1-oxa-4,9-diazaspiro[5.5]undecan-9-yl)methyl)phenethylamino)-1-hydroxyethyl)-4-hydroxybenzo[d]thiazol-2(3H)-one], the activation at 1 µM in experiment [1] is 87%. In experiment [2], this compound returned an inhibition at 1 µM of 42%.

As to `Cc1ccsc1C(=O)N1CCOC2(CCN(Cc3cc(F)cc(CCNC[C@H](O)c4ccc(O)c5[nH]c(=O)sc45)c3)CC2)C1` [Example 125, (R)-7-(2-(3-fluoro-5-((4-(3-methylthiophene-2-carbonyl)-1-oxa-4,9-diazaspiro[5.5]undecan-9-yl)methyl)phenethylamino)-1-hydroxyethyl)-4-hydroxybenzo[d]thiazol-2(3H)-one], in experiment [1], the activation at 1 µM was found to be 97%. The compound further came in with an inhibition at 1 µM in experiment [2] of 52%.

For `Cc1nonc1CC(=O)N1CCOC2(CCN(Cc3cc(F)cc(CCNC[C@H](O)c4ccc(O)c5[nH]c(=O)sc45)c3)CC2)C1` [Example 163, (R)-7-(2-(3-fluoro-5-((4-(2-(4-methyl-1,2,5-oxadiazol-3-yl)acetyl)-1-oxa-4,9-diazaspiro[5.5]undecan-9-yl)methyl)phenethylamino)-1-hydroxyethyl)-4-hydroxybenzo[d]thiazol-2(3H)-one], in experiment [1], the activation at 1 µM was 95%. Moreover, in experiment [2], the inhibition at 1 µM came out at 25%.

For the compound `Cc1cccc(C(=O)N2CCOC3(CCN(Cc4cc(F)cc(CCNC[C@H](O)c5ccc(O)c6[nH]c(=O)sc56)c4)CC3)C2)c1` [Example 122, (R)-7-(2-(3-fluoro-5-((4-(3-methylbenzoyl)-1-oxa-4,9-diazaspiro[5.5]undecan-9-yl)methyl)phenethylamino)-1-hydroxyethyl)-4-hydroxybenzo[d]thiazol-2(3H)-one], the activation at 1 µM in experiment [1] is 82%. The same compound gave an inhibition at 1 µM in experiment [2] of 86%.

As for `Cc1cc(C(=O)N2CCOC3(CCN(CCOc4ccc(CNC[C@H](O)c5ccc(O)c6[nH]c(=O)sc56)cc4)CC3)C2)sc1C` [Example 263], the “β2 (% effect at 1 μM)” value in experiment [1] (1 μM compound) is given as 74%. The “M3 (% inhibition at 1 μM)” value in experiment [2] is reported as 37%.

Turning to `CCCc1nc(C(=O)N2CCOC3(CCN(CCOc4ccc(CNC[C@H](O)c5ccc(O)c6[nH]c(=O)sc56)cc4)CC3)C2)cs1` [Example 260, (R)-4-hydroxy-7-(1-hydroxy-2-(4-(2-(4-(2-propylthiazole-4-carbonyl)-1-oxa-4,9-diazaspiro[5.5]undecan-9-yl)ethoxy)benzylamino)ethyl) benzo[d]thiazol-2(3H)-one], the activation at 1 µM in experiment [1] turned out to be 56%. Besides, the inhibition at 1 µM in experiment [2] stood at 93%.

Turning to `O=C(Cc1noc2ccccc12)N1CCOC2(CCN(Cc3cc(F)cc(CCNC[C@H](O)c4ccc(O)c5[nH]c(=O)sc45)c3)CC2)C1` [Example 144, (R)-7-(2-(3-((4-(2-(benzo[d]isoxazol-3-yl)acetyl)-1-oxa-4,9-diazaspiro[5.5]undecan-9-yl)methyl)-5-fluorophenethylamino)-1-hydroxyethyl)-4-hydroxybenzo[d]thiazol-2(3H)-one], in experiment [1], the activation at 1 µM was 101%. In experiment [2], this compound had an inhibition at 1 µM of 35%.

For the compound `Cc1sccc1C(=O)N1CCOC2(CCN(Cc3cc(F)cc(CCNC[C@H](O)c4ccc(O)c5[nH]c(=O)sc45)c3)CC2)C1` [Example 147, (R)-7-(2-(3-fluoro-5-((4-(2-methylthiophene-3-carbonyl)-1-oxa 4,9-diazaspiro[5.5]undecan-9-yl)methyl)phenethylamino)-1-hydroxyethyl)-4-hydroxybenzo[d]thiazol-2(3H)-one], in experiment [1], the activation at 1 µM worked out at 102%. In experiment [2], this compound displayed an inhibition at 1 µM of 66%.

Turning to `Cc1nn(-c2ccccc2)nc1C(=O)N1CCOC2(CCN(Cc3cc(F)cc(CCNC[C@H](O)c4ccc(O)c5[nH]c(=O)sc45)c3)CC2)C1` [Example 170, (R)-7-(2-(3-fluoro-5-((4-(5-methyl-2-phenyl-2H-1,2,3-triazole-4-carbonyl)-1-oxa-4,9-diazaspiro[5.5]undecan-9-yl)methyl)phenethylamino)-1-hydroxyethyl)-4-hydroxybenzo[d]thiazol-2(3H)-one], the activation at 1 µM in experiment [1] was determined as 102%. Further, the inhibition at 1 µM in experiment [2] was 42%.

For the compound `Cc1ccn(CC(=O)N2CCOC3(CCN(CCCCCCCCCNC[C@H](O)c4ccc(O)c5[nH]c(=O)sc45)CC3)C2)n1` [Example 204, (R)-4-hydroxy-7-(1-hydroxy-2-(9-(4-(2-(3-methyl-1H-pyrazol-1-yl)acetyl)-1-oxa-4,9-diazaspiro[5.5]undecan-9-yl)nonylamino)ethyl)benzo[d]thiazol-2(3H)-one], the activation at 1 µM in experiment [1] came to 101%. Further, testing at 1 µM in experiment [2] gave an inhibition of 97%.

Turning to `O=C(c1ccsc1Cl)N1CCOC2(CCN(CCOc3ccc(CNC[C@H](O)c4ccc(O)c5[nH]c(=O)sc45)cc3)CC2)C1` [Example 253, (R)-7-(2-(4-(2-(4-(2-chlorothiophene-3-carbonyl)-1-oxa-4,9-diazaspiro[5.5]undecan-9-yl)ethoxy)benzylamino)-1-hydroxyethyl)-4-hydroxy-benzo[d]thiazol-2(3H)-one], the activation at 1 µM in experiment [1] turned out to be 73%. This compound also came in with an inhibition at 1 µM in experiment [2] of 35%.

With `Cc1n[nH]c(CC(=O)N2CCOC3(CCN(Cc4cc(F)cc(CCNC[C@H](O)c5ccc(O)c6[nH]c(=O)sc56)c4)CC3)C2)n1` [Example 134, (R)-7-(2-(3-fluoro-5-((4-(2-(3-methyl-1H-1,2,4-triazol-5-yl)acetyl)-1-oxa-4,9-diazaspiro[5.5]undecan-9-yl)methyl)phenethylamino)-1-hydroxyethyl)-4-hydroxybenzo[d]thiazol-2(3H)-one], the activation at 1 µM in experiment [1] stood at 116%. This compound also registered an inhibition at 1 µM in experiment [2] of 4%.

`Cn1cccc1C(=O)N1CCOC2(CCN(CCOc3ccc(CNC[C@H](O)c4ccc(O)c5[nH]c(=O)sc45)cc3)CC2)C1` [Example 225, (R)-4-hydroxy-7-(1-hydroxy-2-(4-(2-(4-(1-methyl-1H-pyrrole-2-carbonyl)-1-oxa-4,9-diazaspiro[5.5]undecan-9-yl)ethoxy)benzylamino)ethyl) benzo[d]thiazol-2(3H)-one]: the activation at 1 µM in experiment [1] came out at 74%. The inhibition at 1 µM in experiment [2] was 60%.

On to `Cc1cc(C(=O)N2CCOC3(CCN(CCOc4ccc(CNC[C@H](O)c5ccc(O)c6[nH]c(=O)sc56)cc4)CC3)C2)c(C)s1` [Example 243, (R)-7-(2-(4-(2-(4-(2,5-dimethylthiophene-3-carbonyl)-1-oxa-4,9-diazaspiro[5.5]undecan-9-yl)ethoxy)benzylamino)-1-hydroxyethyl)-4-hydroxy-benzo[d]thiazol-2(3H)-one], for which the activation at 1 µM in experiment [1] is 84%. Also, at 1 µM the inhibition in experiment [2] was 78%.
